Assay results taken from article doi:10.1101/2025.09.30.679521v1, “Crystallographic characterisation and development of bi-substrate inhibitors of coronavirus nsp14 methyltransferase” (biorxiv, 2025).

Experiments:
in vitro = assay: in vitro; parameters: mouse liver microsomal stability; conditions: liver microsomes; Mouse liver microsomes; read-out: Mouse liver Mic T1/2 / min
From the text: We initiated our structure-activity relationship (SAR) studies by investigating various replacements for the benzothiazole group, compounds 2-17, Table 1. […] Relatively flat SAR is observed across this subset of compounds, indeed a 6,5 or 6,6 aromatic system with the appropriate connectivity as compound 1 display relatively similar potencies. […] In general, the mouse microsomal clearance was rather low for this set of molecules, with no significant instabilities introduced, with perhaps the exception of compound 4. With no significant advantages in either potency or mouse microsomal clearance (Table S2) identified for this subset, the benzothiazole was taken forward into subsequent SAR studies. Table 2. Enzymatic inhibition against SARS-CoV-2 nsp14, human RNMT, CHI-logD and mouse microsomal stability.

SARS-CoV-2 nsp14 = target: T1, SARS-CoV-2 nsp14 (Severe acute respiratory syndrome coronavirus 2, UniProt P0DTD1); assay: RapidFire MS methyltransferase assay; assay type: biochemical; conditions: read-out: IC50
T1 construct: gene rep
From the text: RapidFire MS methyltransferase assay on SARS-CoV-2 nsp14

Row | SMILES | half-life (in vitro) [min] | IC50 (SARS-CoV-2 nsp14) [nM] | logD (physchem)
1 | Nc1ncnc2c1ncn2[C@@H]1O[C@H](CSc2ccn3cncc3c2)[C@@H](O)[C@H]1O [compound 17, (2R,3R,4S,5S)-2-(6-Aminopurin-9-yl)-5-(imidazo[1,5-a]pyridine-7-ylsulfanylmethyl) tetrahydrofuran-3,4-diol] | 11.1 |  | 
2 | Nc1ncnn2c([C@@H]3O[C@H](CSc4ccc5ccccc5n4)[C@@H](O)[C@H]3O)ccc12 [compound 38] |  | 680 ± 110 | 1.7
3 | CCc1cn([C@@H]2O[C@H](CSc3nc4ccccc4s3)[C@@H](O)[C@H]2O)c2ncnc(N)c12 [compound 31, (2R,3R,4S,5S)-2-(4-amino-5-ethyl-pyrrolo[2,3-d]pyrimidin-7-yl) -5-(1,3-benzothiazol-2-ylsulfanylmethyl)tetrahydrofuran-3,4-diol] | 3.9 |  | 
4 | Nc1ncnn2c([C@@H]3O[C@H](CSc4nc5ccccc5s4)[C@@H](O)[C@H]3O)ccc12 [compound 35, (2S,3R,4S,5S)-2-(4-Aminopyrrolo[2,1-f][1,2,4]triazin-7-yl)-5-(1,3-benzothiazol-2-ylsulfanylmethyl)tetrahydrofuran-3,4-diol] | > 30 |  | 
5 | Nc1ncnn2c([C@@H]3O[C@H](CSc4ccc5ccccc5c4)[C@@H](O)[C@H]3O)ccc12 [compound 37, (2S,3R,4S,5S)-2-(4-Aminopyrrolo[2,1-f][1,2,4]triazin-7-yl)-5-(2-naphthylsulfanylmethyl) tetrahydrofuran-3,4-diol] | 13.6 |  | 
6 | Nc1ncnn2c([C@@H]3O[C@H](CCc4nc5ccccc5s4)[C@@H](O)[C@H]3O)ccc12 [compound 39, (2S,3R,4S,5R)-2-(4-Aminopyrrolo[2,1-f][1,2,4]triazin-7-yl)-5-[2-(1,3-benzothiazol-2-yl)ethyl]tetrahydrofuran-3,4-diol] | > 30 |  | 
7 | Nc1ncnc2c1ncn2[C@@H]1O[C@H](CSc2nc3ccccc3o2)[C@@H](O)[C@H]1O [compound 14, (2R,3R,4S,5S)-2-(6-Amino-9H-purin-9-yl)-5-((benzo[d]oxazol-2-ylthio)methyl) tetrahydrofuran-3,4-diol] | > 30 |  | 
8 | Nc1ncnn2c([C@@H]3O[C@H](CSc4ccc5ccccc5n4)[C@@H](O)[C@H]3O)ccc12 [compound 38, (2S,3R,4S,5S)-2-(4-Aminopyrrolo[2,1-f][1,2,4]triazin-7-yl)-5-(2-quinolylsulfanylmethyl) tetrahydrofuran-3,4-diol] | > 30 |  | 
9 | Nc1ncnn2c([C@@H]3O[C@H](CSc4ccc5ccccc5c4)[C@@H](O)[C@H]3O)ccc12 [compound 37] |  | 200 ± 70 | 2.2
10 | Nc1ncnc2c1ncn2[C@@H]1O[C@H](CSc2nc3ccccc3[nH]2)[C@@H](O)[C@H]1O [compound 15, (2S,3S,4R,5R)-2-(((1H-Benzo[d]imidazol-2-yl)thio)methyl)-5-(6-amino-9H-purin-9-yl) tetrahydrofuran-3,4-diol] | > 30 |  | 
11 | Nc1ncnc2c1ccn2[C@@H]1C[C@H](CSc2nc3ccccc3s2)[C@@H](O)[C@H]1O [compound 28] | > 30 |  | 1.8
12 | Cc1ccc2nc(SC[C@H]3O[C@@H](c4ccc5c(N)ncnn45)[C@H](O)[C@@H]3O)sc2c1 [compound 36] |  | 340 ± 140 | 1.9
13 | CNc1ncnc2c1ncn2[C@@H]1O[C@H](CSc2nc3ccccc3s2)[C@@H](O)[C@H]1O [compound 18, (2S,3S,4R,5R)-2-(1,3-Benzothiazol-2-ylsulfanylmethyl)-5-[6-(methylamino)purin-9-yl]tetrahydrofuran-3,4-diol] | 19.7 |  | 
14 | Cc1ccc2nc(SC[C@H]3O[C@@H](c4ccc5c(N)ncnn45)[C@H](O)[C@@H]3O)sc2c1 [compound 36, (2S,3R,4S,5S)-2-(4-Aminopyrrolo[2,1-f][1,2,4]triazin-7-yl)-5-[(6-methyl-1,3-benzothiazol-2-yl)sulfanylmethyl]tetrahydrofuran-3,4-diol] | 18 |  | 
15 | Nc1ncnc2c1ncn2[C@@H]1O[C@H](CSc2nccs2)[C@@H](O)[C@H]1O [compound 11, (2R,3R,4S,5S)-2-(6-Aminopurin-9-yl)-5-(thiazol-2-ylsulfanylmethyl) tetrahydrofuran-3,4-diol] | > 30 |  | 
